Experiments:
[1] = test system: IP-10 in mBMDMs (wild-type and IRF3 KO); assay: IP-10 induction in mouse bone marrow derived macrophages (ELISA); type: cell-based; details: increasing concentrations, wild-type vs IRF3 knock-out cells
Description: IP-10 levels were determined by mouse CXCL10/IP10 ELISA (Invitrogen, Carlsbad, Calif.) and are expressed as pg/ml. Data represents group mean+/−standard deviation.
IP-10 expression was determined by mouse CXCL10/IP10 ELISA (Invitrogen, Carlsbad, Calif.), and is expressed as pg/ml. Data represents group mean+/−standard deviation.
Target specificity of chemical entities corresponding to the ND and NA chemofamiles was examined by determining dose-dependent expression of IP10, a highly inducible, primary response gene that belongs to the C-X-C chemokine superfamily. […] IP-10 expression was monitored by a mouse CXCL10/IP10 ELISA (Invitrogen, Carlsbad, Calif.), and is expressed at FIG. 20 and FIG. 21 as pg/ml.

[2] = test system: IP-10 in human monocyte-derived macrophages; assay: IP-10 induction in human monocyte-derived macrophages (ELISA); type: cell-based; details: dose response
From the text: FIG. 24 is a graph of NA-42 dose dependent IP-10 induction in human monocyte-derived macrophages. IP-10 expression was monitored by Human CXCL10/IP10 ELISA (R&D Systems, Minneapolis, Minn.) and is expressed as pg/ml. Shown are group means+/−standard deviation; ****p<0.0001.
FIG. 25 is a graph of ND-13 dose dependent IP-10 induction in human monocyte-derived macrophages. IP-10 expression was monitored by Human CXCL10/IP10 ELISA (R&D Systems, Minneapolis, Minn.) and is expressed as pg/ml. Shown are group means+/−standard deviation; ****p<0.0001.
As discussed above with regard to Example 19, target specificity of chemical entities corresponding to the ND and NA chemofamilies was examined by dose-dependent expression of IP-10 in mBMDMs. In this example, 23, target specificity of chemical entities corresponding to the ND and NA chemofamiles was examined by determining dose-dependent expression of IP-10 in human primary cells, specifically monocyte-derived macrophages. […] For FIGS. 24-25, IP-10 expression was monitored by Human CXCL10/IP10 ELISA (R&D Systems, Minneapolis, Minn.), and is expressed at FIGS. 24-25 as pg/ml.

| SMILES | induction of IP-10 in mBMDMs [1] | IP-10 induction in human monocyte-derived macrophages [2] |
| --- | --- | --- |
| COc1ccc(C(=O)Nc2cc(-c3nc4cc(C)c(C)cc4o3)ccc2C)cc1[N+](=O)[O-] [ND-13, N-(5-(5,6-dimethylbenzo[d]oxazol-2-yl)-2-methylphenyl)-4-methoxy-3-nitrobenzamide] | IRF3 dependent induction | dose-dependent IP-10 induction |
| CCOc1cccc(COc2ccc(C(=O)Nc3ccc(N4CCN(C(=O)c5cccs5)CC4)cc3)cc2)c1 [NA-42, 4-((3-ethoxybenzyl)oxy)-N-(4-(4-(thiophene-2-carbonyl)piperazin-1-yl)phenyl)benzamide] | IRF3 dependent induction | dose-dependent IP-10 induction |
